Measurements from patent publication US10858384B2, “Synthetic molecule constructs” (KODE BIOTECH LIMITED, priority 2004, dated 2020).
Like-named read-outs stand apart in the source and are kept apart here.

Experiments:
[1] = Solubility of synthetic glycolipids in hot PBS; type: physicochemical
Description: In the context of this description the phrase “water soluble” means a stable, single phase system is formed when the synthetic molecule construct is contacted with water or saline (such as PBS) in the absence of organic solvents or detergents, and the term “solution” has a corresponding meaning.
For use in the transformation of cells the first criterion that synthetic glycolipids must satisfy is that they are soluble in aqueous solvents, e.g. phosphate buffered saline.
Initial tests on the molecules were to establish solubility and thus eliminate those molecules that were unsuitable for use in the transformation of cells.

RBCs [2] = test: Detectable transformation ability of synthetic glycolipids (agglutination); type: cell-based; conditions: agglutination with the appropriate antibody
Description: The synthetic glycolipid must also be able to insert into the membrane and be recognisable to the appropriate antibody for transformation to be detected by agglutination. Initial tests on the molecules were to establish solubility and thus eliminate those molecules that were unsuitable for use in the transformation of cells.

Mouse RBCs = test: Tube serology of murine RBCs transformed with H-antigen synthetic glycolipids; type: cell-based; conditions: for H Antisera IgM, Tube: mouse RBCs; for Agglutination, UEA-1: tube serology
Procedure: Washed packed mouse RBCs (3 parts by volume) and the synthetic glycolipid solutions (1 part by volume of varying concentrations) were added to an eppendorf tube. The tube was incubated in a 37° C. waterbath for one hour, mixing every 15 minutes. The transformed RBCs were washed 3× with PBS and then suspended in Cellstab™ at the appropriate concentration for serology testing.
Murine RBCs were washed 3× in 1× PBS. 30 μl of packed RBCs were combined with 30 μl of Hdi-sp-Ad-DOPE (VIII), and 30 μl of packed RBCs were combined with 30 μl Galβ-sp-Ad-DOPE (IX), respectively. Both synthetic molecule constructs were at a concentration of 1.0 mg/ml. 30 μl of 1× PBS was added to 30 μl of packed RBCs to act as the control group. Cells were incubated for 90 minutes in a 37° C. shaking water-bath. RBCs were washed 3× in 1× PBS.
Three groups of packed RBCs were incubated with an equal volume of lectin UEA-1 for 30 minutes at room temperature. The lectin was prepared in 1× PBS at a concentration of 0.1 mg/ml. 50 μl of a 3% cell suspension was spun for 15 seconds in an Immunofuge at low speed. Results were read by tube serology.

red blood cells = test: Association of KODE-fluorescein with cell membranes (fluorescence microscope); type: cell-based
Description: FIG. 20. Red blood cells following contact with a synthetic molecule construct (XVI) viewed with a fluorescence microscope at 470 nm under 250× magnification.
A medium to strongly fluorescing cell was considered to indicate a uniform distribution of the molecule across the cell membrane (FIG. 20).

[3] = system: group O red blood cells (RBCs); test: Tube serology of group O RBCs transformed at 37° C. with synthetic glycolipids; type: cell-based, human; design: Albaclone anti-A, Tube / Bioclone anti-A, Tube: scale not given here
Procedure: (§1) Washed packed group O red blood cells (RBCs) (3 parts by volume) and the synthetic glycolipid solution (1 part by volume, varying concentrations) were added to an eppendorf tube. The tube was incubated in a 37° C. waterbath for one hour, mixing every 15 minutes. […]
(§2) Tube serology and Diamed gel-card results for RBCs transformed with the different synthetic molecule constructs are provided in Table 38. Results for the stability of the RBCs transformed with the different synthetic glycolipids at different concentrations are provided in Tables 39 to 44.

[4] = system: group O red blood cells (RBCs); test: Diamed gel-card agglutination of group O RBCs transformed at 37° C. with synthetic glycolipids; type: cell-based, human; design: scale not given here
Procedure: as §1, §2

RBCs [5] = test: Evaluation of insertion of different lipid tails by agglutination with the relevant antisera; type: cell-based; design: scale not given here
Description: Transformation of RBCs with synthetic glycolipids with different lipid tails was first evaluated (Tables 22 and 24).

For CCCCCCCC/C=C\CCCCCCCC(=O)OC[C@H](COP(=O)(O)OCCNC(=O)CCCCC(=O)NCCCO[C@@H]1O[C@H](CO)[C@H](O)[C@H](O)[C@H]1O)OC(=O)CCCCCCC/C=C\CCCCCCCC [Galβ-sp-Ad-DOPE (IX)], the Water solubility [1] was “Yes”, the Detectable transformation ability (RBCs [2]) was “lack of detectable transformation and No” and the “H Antisera IgM, Tube” value (Mouse RBCs; 0.01 mg/mL) was 0. The “H Antisera IgM, Tube” value (Mouse RBCs; 0.05 mg/mL) was 0, the “H Antisera IgM, Tube” value (Mouse RBCs; 0.1 mg/mL) was 0 and the “H Antisera IgM, Tube” value (Mouse RBCs; 0.25 mg/mL) was 0.
In the case of CCCCCCCCC=CCCCCCCCC(=O)OCC(COP(=O)(O)OCCNC(=O)CCCCC(=O)NCCCCCNC(=S)Nc1ccc(-c2c3ccc(=O)cc-3oc3cc(O)ccc23)c(C(=O)O)c1)OC(=O)CCCCCCCC=CCCCCCCCC (centres unmarked) [KODE-fluorescein (I)], the “Association with the membrane of red blood cells” value (red blood cells) is reported as “readily associates”, the “Concentration of dispersion at which insertion is observed” value (red blood cells) is reported as “greater than 0.1 mg/ml” and the “Period for which incorporation and distribution appears stable” value (red blood cells; cells stored in the dark) is reported as “at least 40 days”.
In the case of CCCCCCCC/C=C\CCCCCCCC(=O)OC[C@H](COP(=O)(O)OCCNC(=O)CCCCC(=O)NCCCO[C@@H]1O[C@H](CO)[C@H](O)[C@H](O)[C@H]1O)OC(=O)CCCCCCC/C=C\CCCCCCCC [Galβ], the “Agglutination, UEA-1” value (Mouse RBCs; Murine RBC, 1 mg/ml) is reported as 0.
For CCCCCCCCCCCCCCCCCC(=O)OC[C@H](COP(=O)(O)OCCNC(=O)CCCCC(=O)NCCCO[C@@H]1O[C@H](CO)[C@H](O)[C@H](O[C@H]2O[C@H](CO)[C@H](O)[C@H](O)[C@H]2NC(C)=O)[C@H]1O[C@@H]1O[C@@H](C)[C@@H](O)[C@@H](O)[C@@H]1O)OC(=O)CCCCCCCCCCCCCCCCC [Atri-sp-Ad-DSPE (III)], the “Albaclone anti-A, Tube” value ([3]; 0.01 mg/mL) was 0, the “Bioclone anti-A, Tube” value ([3]; 0.01 mg/mL) was 0 and the “Albaclone anti-A, Tube” value ([3]; 0.02 mg/mL) was 0. For the same compound, the “Bioclone anti-A, Tube” value ([3]; 0.02 mg/mL) was 0, the “Albaclone anti-A, Tube” value ([3]; 0.03 mg/mL) was 0 and the “Bioclone anti-A, Tube” value ([3]; 0.03 mg/mL) was 0. For the same compound, the “Albaclone anti-A, Tube” value ([3]; 0.04 mg/mL) was 0, the “Bioclone anti-A, Tube” value ([3]; 0.04 mg/mL) was 0 and the “Albaclone anti-A, Tube” value ([3]; 0.05 mg/mL) was 0. The “Bioclone anti-A, Tube” value ([3]; 0.05 mg/mL) was 0, the Water solubility ([1]; hot PBS) was “Yes” and the Detectable transformation ability (RBCs [2]) was “Yes”. For the same compound, the “Albaclone anti-A, Diamed” value ([4]; 0.01 mg/mL) was 0, the “Bioclone anti-A, Diamed” value ([4]; 0.01 mg/mL) was 0 and the “Albaclone anti-A, Diamed” value ([4]; 0.05 mg/mL) was 0. The “Bioclone anti-A, Diamed” value ([4]; 0.05 mg/mL) was 0, the “Albaclone anti-A, Diamed” value ([4]; 0.1 mg/mL) was 0 and the “Bioclone anti-A, Diamed” value ([4]; 0.1 mg/mL) was 0. For the same compound, the “Albaclone anti-A, Diamed” value ([4]; 0.25 mg/mL) was 0, the “Bioclone anti-A, Diamed” value ([4]; 0.25 mg/mL) was 0 and the Agglutination score (RBCs [5]; 10 μg/mL, Alba anti-A, first series) was 0. It also gave an Agglutination score (RBCs [5]; 10 μg/mL, Bio anti-A, first series) of 0, an Agglutination score (RBCs [5]; 20 μg/mL, Alba anti-A, first series) of 0 and an Agglutination score (RBCs [5]; 20 μg/mL, Bio anti-A, first series) of 0. The Agglutination score (RBCs [5]; 30 μg/mL, Alba anti-A, first series) was 0, the Agglutination score (RBCs [5]; 30 μg/mL, Bio anti-A, first series) was 0 and the Agglutination score (RBCs [5]; 40 μg/mL, Alba anti-A, first series) was 0. It also gave an Agglutination score (RBCs [5]; 40 μg/mL, Bio anti-A, first series) of 0, an Agglutination score (RBCs [5]; 50 μg/mL, Alba anti-A, first series) of 0 and an Agglutination score (RBCs [5]; 50 μg/mL, Bio anti-A, first series) of 0. For the same compound, the Agglutination score (RBCs [5]; 1000 μg/mL, DBA) was 0.
For CCCCCCCC/C=C\CCCCCCCC(=O)OC[C@H](COP(=O)(O)OCCNC(=O)CCCCC(=O)NCCCO[C@@H]1O[C@H](CO)[C@H](O)[C@H](O)[C@H]1O[C@@H]1O[C@@H](C)[C@@H](O)[C@@H](O)[C@@H]1O)OC(=O)CCCCCCC/C=C\CCCCCCCC [Hdi-sp-Ad-DOPE (VIII)], the Water solubility ([1]; hot PBS) was “Yes”, the Detectable transformation ability (RBCs [2]) was “lack of detectable transformation and No” and the “H Antisera IgM, Tube” value (Mouse RBCs; 0.01 mg/mL) was 0. The “H Antisera IgM, Tube” value (Mouse RBCs; 0.05 mg/mL) was 0, the “H Antisera IgM, Tube” value (Mouse RBCs; 0.1 mg/mL) was 0 and the “H Antisera IgM, Tube” value (Mouse RBCs; 0.25 mg/mL) was 0. For the same compound, the “Detection of transformed murine RBCs by anti-H IgM and UEA-1” value (Mouse RBCs; 1.0 mg/ml, 37° C. 90 minutes) was “neither anti-H IgM nor UEA-1 detects”, the “Agglutination, Mouse IgM^H” value (Mouse RBCs; Murine RBC, 1 mg/ml) was 0 and the “Agglutination, UEA-1” value (Mouse RBCs; Murine RBC, 1 mg/ml) was 0.
